Experimental data taken from patent US20240082223A1, “DIHYDROFUROPYRIDINE DERIVATIVES AS RHO- KINASE INHIBITORS” (CHIESI FARMACEUTICI S.P.A., priority 2020, published 2024).

Key:
Format in all cases: biochemical
PKA = PKA (Homo sapiens, UniProt P17612); experiment: In vitro inhibitory activity assay for PKA (ADP-Glo), reported as selectivity ratio vs ROCK2; conditions: Ki PKA divided by Ki ROCK2 (method B)
Protocol: In vitro inhibitory activity assay description for PKA
The effectiveness of compounds of the present invention to inhibit PKA activity can be determined in a […], assay containing 40 mM Tris pH7.5, 20 mM MgCl2 0.1 mg/mL BSA, 50 μM DTT and 260 μM peptide substrate (kemptide) using an ADP-Glo kit (Promega). Compounds were dissolved in DMSO such that the final concentration of DMSO was 1% in the assay. All reactions/incubations are performed at 25° C. Compound and PKA enzyme (6 μl) were mixed and incubated for 30 min. Reactions were initiated by addition of ATP (4 μL) such that the final concentration of ATP in the assay was 10 μM. After a 30 minute incubation 10 μL of ADP-Glo Reagent was added and after a further 1 hour incubation 20 μL of Kinase Detection Buffer was added and the mixture incubated for a further 45 minutes. The luminescent signal was measured on a luminometer. […] Compounds were tested in dose-response format and the inhibition of kinase activity was calculated at each concentration of compound. To determine the IC50 (concentration of compound required to inhibit 50% of the enzyme activity) data were fit to a plot of % inhibition vs Log10 compound concentration using a sigmoidal fit with a variable slope and fixing the maximum to 100% and the minimum to 0%. To determine the Ki values the Cheng-Prusoff equation was utilized (Ki=IC50/(1+[S]/Km).
In vitro inhibitory activities for PKA were reported as selectivity ratio vs. ROCK2. Selectivity ratio PKA/ROCK2 was calculated by dividing the Ki value for PKA by Ki value of ROCK2 (method B) and reported into table 1.

ROCK2 [1] = molecular target: T1, ROCK2 (Homo sapiens, UniProt O75116); experiment: In vitro inhibitory activity assay ROCK2 (Method B, ADP-Glo, 200 μM ATP); conditions: ATP 200 μM, read-out: Method B ROCK 2 (Ki)
T1 sequence (O75116 whole entry): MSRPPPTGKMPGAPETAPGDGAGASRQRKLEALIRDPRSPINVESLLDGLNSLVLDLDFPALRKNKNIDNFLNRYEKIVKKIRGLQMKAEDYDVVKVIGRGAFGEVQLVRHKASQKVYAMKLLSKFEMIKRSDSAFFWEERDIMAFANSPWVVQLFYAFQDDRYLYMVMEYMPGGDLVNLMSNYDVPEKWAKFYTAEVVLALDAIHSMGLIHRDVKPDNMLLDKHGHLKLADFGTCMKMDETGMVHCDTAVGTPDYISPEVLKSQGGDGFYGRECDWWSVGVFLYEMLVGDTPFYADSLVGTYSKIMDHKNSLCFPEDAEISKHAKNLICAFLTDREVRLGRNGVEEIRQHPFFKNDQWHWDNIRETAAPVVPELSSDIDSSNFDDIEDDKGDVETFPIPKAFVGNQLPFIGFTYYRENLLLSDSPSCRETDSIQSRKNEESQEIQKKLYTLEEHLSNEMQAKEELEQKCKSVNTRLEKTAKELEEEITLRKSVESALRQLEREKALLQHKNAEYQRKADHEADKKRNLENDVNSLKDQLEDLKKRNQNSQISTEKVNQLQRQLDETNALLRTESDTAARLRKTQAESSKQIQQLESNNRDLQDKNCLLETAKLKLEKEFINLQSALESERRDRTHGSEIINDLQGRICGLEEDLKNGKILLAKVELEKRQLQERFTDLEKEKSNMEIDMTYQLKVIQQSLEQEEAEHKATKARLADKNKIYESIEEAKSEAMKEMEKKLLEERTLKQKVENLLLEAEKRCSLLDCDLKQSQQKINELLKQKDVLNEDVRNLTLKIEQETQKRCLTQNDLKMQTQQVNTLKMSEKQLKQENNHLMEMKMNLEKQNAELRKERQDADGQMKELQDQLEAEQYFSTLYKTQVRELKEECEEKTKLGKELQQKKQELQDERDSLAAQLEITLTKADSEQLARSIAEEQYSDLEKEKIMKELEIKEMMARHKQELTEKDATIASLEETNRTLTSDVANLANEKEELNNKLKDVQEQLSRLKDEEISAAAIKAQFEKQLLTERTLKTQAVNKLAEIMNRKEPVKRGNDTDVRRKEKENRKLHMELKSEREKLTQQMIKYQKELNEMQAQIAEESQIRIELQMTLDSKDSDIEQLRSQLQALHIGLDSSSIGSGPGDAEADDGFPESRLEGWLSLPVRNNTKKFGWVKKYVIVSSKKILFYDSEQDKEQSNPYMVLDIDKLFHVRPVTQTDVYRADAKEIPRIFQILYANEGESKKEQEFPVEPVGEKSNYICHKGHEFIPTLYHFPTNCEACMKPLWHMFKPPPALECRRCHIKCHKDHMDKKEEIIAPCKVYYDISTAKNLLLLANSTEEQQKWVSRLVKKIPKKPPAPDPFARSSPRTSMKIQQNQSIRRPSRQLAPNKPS
Protocol: (§1) In Vitro Inhibitory Activity Assay Description ROCK1 and ROCK2
(§2) The effectiveness of compounds of the present invention to inhibit Rho kinase activity can be determined in a 10 μl assay containing 40 mM Tris pH7.5, 20 mM MgCl2 0.1 mg/mL BSA, 50 μM DTT and 2.5 μM peptide substrate (Myelin Basic Protein) using an ADP-Glo kit (Promega). Compounds were dissolved in DMSO such that the final concentration of DMSO was 1% in the assay. All reactions/incubations are performed at 25° C. Compound (2 μL) and either Rho kinase 1 or 2 (4 μl) were mixed and incubated for 30 min. Reactions were initiated by addition of ATP (4 μL) such that the final concentration of ATP in the assay was 200 μM. After a 1 hour incubation 10111 of ADP-Glo Reagent was added and after a further 45 minute incubation 20 μL of Kinase Detection Buffer was added and the mixture incubated for a further 30 minutes. The luminescent signal was measured on a luminometer. […] Compounds were tested in dose-response format and the inhibition of kinase activity was calculated at each concentration of compound. To determine the IC50 (concentration of compound required to inhibit 50% of the enzyme activity) data were fit to a plot of % inhibition vs Log10 compound concentration using a sigmoidal fit with a variable slope and fixing the maximum to 100% and the minimum to 0%. To determine the Ki values the Cheng-Prusoff equation was utilized (Ki=IC50/(1[S]/Km).

ROCK1 [2] = molecular target: T2, ROCK1 (Homo sapiens, UniProt Q13464); experiment: In vitro inhibitory activity assay ROCK1 (Method B, ADP-Glo, 200 μM ATP); conditions: ATP 200 μM, read-out: Method B ROCK 1 (Ki)
T2 sequence (Q13464 whole entry): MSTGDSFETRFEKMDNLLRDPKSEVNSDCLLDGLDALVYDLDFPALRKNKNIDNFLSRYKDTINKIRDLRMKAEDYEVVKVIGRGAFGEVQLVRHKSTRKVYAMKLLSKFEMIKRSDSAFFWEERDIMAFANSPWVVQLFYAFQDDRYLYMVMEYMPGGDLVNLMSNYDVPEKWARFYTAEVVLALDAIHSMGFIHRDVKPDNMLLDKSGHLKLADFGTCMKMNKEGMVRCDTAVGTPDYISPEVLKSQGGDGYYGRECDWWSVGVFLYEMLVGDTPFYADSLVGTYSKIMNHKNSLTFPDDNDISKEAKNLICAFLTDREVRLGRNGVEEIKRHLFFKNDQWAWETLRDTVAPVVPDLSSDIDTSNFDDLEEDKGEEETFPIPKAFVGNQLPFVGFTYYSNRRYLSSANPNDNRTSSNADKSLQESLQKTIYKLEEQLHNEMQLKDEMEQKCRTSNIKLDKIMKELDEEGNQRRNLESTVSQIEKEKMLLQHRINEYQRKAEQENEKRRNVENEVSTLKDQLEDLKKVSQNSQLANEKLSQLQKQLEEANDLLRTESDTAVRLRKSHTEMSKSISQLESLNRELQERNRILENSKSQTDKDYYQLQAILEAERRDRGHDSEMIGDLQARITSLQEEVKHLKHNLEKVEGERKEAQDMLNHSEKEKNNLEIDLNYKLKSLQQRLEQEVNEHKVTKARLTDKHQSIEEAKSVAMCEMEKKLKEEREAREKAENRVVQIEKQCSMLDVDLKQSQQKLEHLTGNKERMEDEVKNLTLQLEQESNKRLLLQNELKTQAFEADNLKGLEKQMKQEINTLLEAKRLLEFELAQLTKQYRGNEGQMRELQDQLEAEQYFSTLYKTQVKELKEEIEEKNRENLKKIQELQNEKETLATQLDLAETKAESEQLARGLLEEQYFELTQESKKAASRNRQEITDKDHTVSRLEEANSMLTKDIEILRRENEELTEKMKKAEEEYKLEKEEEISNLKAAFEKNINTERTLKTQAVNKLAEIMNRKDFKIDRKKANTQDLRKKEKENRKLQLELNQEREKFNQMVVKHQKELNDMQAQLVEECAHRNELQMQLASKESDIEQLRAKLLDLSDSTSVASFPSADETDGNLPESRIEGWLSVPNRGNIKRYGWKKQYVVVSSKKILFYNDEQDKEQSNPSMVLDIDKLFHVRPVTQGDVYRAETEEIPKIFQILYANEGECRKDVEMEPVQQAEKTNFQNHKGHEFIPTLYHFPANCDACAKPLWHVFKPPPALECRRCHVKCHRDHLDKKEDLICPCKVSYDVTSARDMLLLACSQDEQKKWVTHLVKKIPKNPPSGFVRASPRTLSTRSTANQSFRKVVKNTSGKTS
Protocol: as §1, §2

ROCK2 [3] = molecular target: T1, ROCK2; experiment: In vitro inhibitory activity assay ROCK2 (Method A, ADP-Glo, 10 μM ATP); conditions: ATP 10 μM, read-out: Method A ROCK 2 (Ki)
Protocol: (§3) In vitro inhibitory activity assay description ROCK1 and ROCK2
as §2, with “(2 uL)” for “(2 μL)”, “was 10” for “was 200”, “incubation […]” for “incubation 10111”, “45 minutes” for “45 minute”, “20 uL” for “20 μL”, “utilized (Ki=IC50/(1+[S]/Km).” for “utilized (Ki=IC50/(1[S]/Km).”

ROCK1 [4] = molecular target: T2, ROCK1; experiment: In vitro inhibitory activity assay ROCK1 (Method A, ADP-Glo, 10 μM ATP); conditions: ATP 10 μM, read-out: Method A ROCK 1 (Ki)
Protocol: as §3
as §2, with “(2 uL)” for “(2 μL)”, “was 10” for “was 200”, “incubation […]” for “incubation 10111”, “45 minutes” for “45 minute”, “20 uL” for “20 μL”, “utilized (Ki=IC50/(1+[S]/Km).” for “utilized (Ki=IC50/(1[S]/Km).”

| Ratio Ki PKA/ROCK2 (PKA) | Ki (ROCK2 [1]) [nM] | Ki (ROCK1 [2]) [nM] | Ki (ROCK2 [3]) [nM] | Ki (ROCK1 [4]) [nM] | Structure (SMILES) |
| --- | --- | --- | --- | --- | --- |
| *** (ratio≥10) | ≤ 3 | ≤ 3 | – | – | O=C(NCC1CCCCO1)c1cccc(CNc2ncc(-c3cn[nH]c3)c3c2CCO3)c1 (racemic) [Example 11, 3-(((7-(1H-pyrazol-4-yl)-2,3-dihydrofuro[3,2-c]pyridin-4-yl)amino)methyl)-N-((tetrahydro-2H-pyran-2-yl)methyl)benzamide] |
| *** (ratio≥10) | ≤ 3 | ≤ 3 | – | – | O=C(NCC1CCCCO1)c1cccc(CNc2ncc(-c3cn[nH]c3)c3c2CCO3)c1 (single isomer, unassigned; enantiomer 1) [Example 55, 3-(((7-(1H-pyrazol-4-yl)-2,3-dihydrofuro[3,2-c]pyridin-4-yl)amino)methyl)-N-((tetrahydro-2H-pyran-2-yl)methyl)benzamide (Enantiomer 1)] |
| *** (ratio≥10) | ≤ 3 | ≤ 3 | – | – | O=C(NCC1CCCCO1)c1cccc(CNc2ncc(-c3cn[nH]c3)c3c2CCO3)c1 (single isomer, unassigned; enantiomer 2) [Example 56, 3-(((7-(1H-pyrazol-4-yl)-2,3-dihydrofuro[3,2-c]pyridin-4-yl)amino)methyl)-N-((tetrahydro-2H-pyran-2-yl)methyl)benzamide (Enantiomer 2)] |
| *** (ratio≥10) | ≤ 3 | ≤ 3 | – | – | O=C(NC1CCN(C2CC2)CC1)c1cccc(CNc2ncc(-c3cn[nH]c3)c3c2CCO3)c1 [Example 1, 3-(((7-(1H-Pyrazol-4-yl)-2,3-dihydrofuro[3,2-c]pyridin-4-yl)amino)methyl)-N-(1-cyclopropylpiperidin-4-yl)benzamide] |
| *** (ratio≥10) | 3 to 30 | 3 to 30 | – | – | O=C(NCCCF)c1cccc(CNc2ncc(-c3cn[nH]c3)c3c2CCO3)c1 [Example 3, 3-(((7-(1H-pyrazol-4-yl)-2,3-dihydrofuro[3,2-c]pyridin-4-yl)amino)methyl)-N-(3-fluoropropyl)benzamide] |
| *** (ratio≥10) | 3 to 30 | 3 to 30 | – | – | O=C(NCC1CC1)c1cccc(CNc2ncc(-c3cn[nH]c3)c3c2CCO3)c1 [Example 5, 3-(((7-(1H-pyrazol-4-yl)-2,3-dihydrofuro[3,2-c]pyridin-4-yl)amino)methyl)-N-(cyclopropylmethyl)benzamide] |
| *** (ratio≥10) | 3 to 30 | 3 to 30 | – | – | CC1(C)CC(NC(=O)c2cccc(CNc3ncc(-c4cn[nH]c4)c4c3CCO4)c2)CO1 (stereo not drawn) [Example 6, 3-(((7-(1H-pyrazol-4-yl)-2,3-dihydrofuro[3,2-c]pyridin-4-yl)amino)methyl)-N-(5,5-dimethyltetrahydrofuran-3-yl)benzamide] |
| *** (ratio≥10) | ≤ 3 | 3 to 30 | – | – | Cn1cnc(CNC(=O)c2cccc(CNc3ncc(-c4cn[nH]c4)c4c3CCO4)c2)c1 [Example 8, 3-(((7-(1H-pyrazol-4-yl)-2,3-dihydrofuro[3,2-c]pyridin-4-yl)amino)methyl)-N-((1-methyl-1H-imidazol-4-yl)methyl)benzamide] |
| *** (ratio≥10) | ≤ 3 | ≤ 3 | – | – | O=C(NCc1cnon1)c1cccc(CNc2ncc(-c3cn[nH]c3)c3c2CCO3)c1 [Example 10, N-((1,2,5-oxadiazol-3-yl)methyl)-3-(((7-(1H-pyrazol-4-yl)-2,3-dihydrofuro[3,2-c]pyridin-4-yl)amino)methyl)benzamide] |
| *** (ratio≥10) | 3 to 30 | 3 to 30 | – | – | O=C(NC1CC(F)(F)C1)c1cccc(CNc2ncc(-c3cn[nH]c3)c3c2CCO3)c1 [Example 12, 3-(((7-(1H-pyrazol-4-yl)-2,3-dihydrofuro[3,2-c]pyridin-4-yl)amino)methyl)-N-(3,3-difluorocyclobutyl)benzamide] |
| *** (ratio≥10) | ≤ 3 | ≤ 3 | ≤ 3 | ≤ 3 | CN1CCn2nc(NC(=O)c3cccc(CNc4ncc(-c5cn[nH]c5)c5c4CCO5)c3)cc2C1 [Example 15, 3-(((7-(1H-pyrazol-4-yl)-2,3-dihydrofuro[3,2-c]pyridin-4-yl)amino)methyl)-N-(5-methyl-4,5,6,7-tetrahydropyrazolo[1,5-a]pyrazin-2-yl)benzamide] |
| *** (ratio≥10) | ≤ 3 | ≤ 3 | ≤ 3 | ≤ 3 | CN1CCC(CCNC(=O)c2cccc(CNc3ncc(-c4cn[nH]c4)c4c3CCO4)c2)CC1 [Example 16, 3-(((7-(1H-pyrazol-4-yl)-2,3-dihydrofuro[3,2-c]pyridin-4-yl)amino)methyl)-N-(2-(1-methylpiperidin-4-yl)ethyl)benzamide] |
| *** (ratio≥10) | ≤ 3 | ≤ 3 | ≤ 3 | ≤ 3 | O=C(NCCC1CCN(C2COC2)CC1)c1cccc(CNc2ncc(-c3cn[nH]c3)c3c2CCO3)c1 [Example 28, 3-(((7-(1H-pyrazol-4-yl)-2,3-dihydrofuro[3,2-c]pyridin-4-yl)amino)methyl)-N-(2-(1-(oxetan-3-yl)piperidin-4-yl)ethyl)benzamide] |
| *** (ratio≥10) | ≤ 3 | ≤ 3 | – | – | COc1ccc(NC(=O)c2cccc(CNc3ncc(-c4cn[nH]c4)c4c3CCO4)c2)nc1 [Example 31, 3-(((7-(1H-Pyrazol-4-yl)-2,3-dihydrofuro[3,2-c]pyridin-4-yl)amino)methyl)-N-(5-methoxypyridin-2-yl)benzamide] |
| *** (ratio≥10) | ≤ 3 | ≤ 3 | – | – | O=C(Nc1ccncn1)c1cccc(CNc2ncc(-c3cn[nH]c3)c3c2CCO3)c1 [Example 32, 3-(((7-(1H-pyrazol-4-yl)-2,3-dihydrofuro[3,2-c]pyridin-4-yl)amino)methyl)-N-(pyrimidin-4-yl)benzamide] |
| *** (ratio≥10) | ≤ 3 | ≤ 3 | – | – | CN(C)CCOc1ccc(NC(=O)c2cccc(CNc3ncc(-c4cn[nH]c4)c4c3CCO4)c2)nc1 [Example 57, 3-(((7-(1H-pyrazol-4-yl)-2,3-dihydrofuro[3,2-c]pyridin-4-yl)amino)methyl)-N-(5-(2-(dimethylamino)ethoxy)pyridin-2-yl)benzamide] |
| * (ratio≤5) | > 30 | > 30 | – | – | c1ccc(CNc2ncc(-c3cn[nH]c3)c3c2CCO3)cc1 [Example C, N-Benzyl-7-(1H-pyrazol-4-yl)-2,3-dihydrofuro[3,2-c]pyridin-4-amine, reference compound] |
